Measured values published in patent EP1690525B1, “Gamma-polyglutamate hydrogels for use as super moisturizers in cosmetic and personal care products” (Tung Hai Biotechnology Corporation, priority 2005, dated 2006).

How the values were obtained:
[1] = test system: outside skin surface of the arm of a test panelist; assay: Moisture retention of the skin after peeling off facial moisture mask (capacitance, Skin Analysis SHP88); assay type: in vivo, human; conditions: 5.0% in facial moisture mask; mask film peeled off after 15 minutes; 23°C, RH 65%
[2] = test system: outside surface of the upper arm skin of a test panelist; assay: Skin irritation patch test, Draize method; assay type: in vivo, human; conditions: 5.0% in facial moisture mask; patched 24 hours
Source text: The small molecular weight γ-polyglutamate in […] with 200,000 to 400,000 daltons (designated as LM), high molecular weight γ-polyglutamate in Ca^++ form with 1.15x10^6 to 1.35x10^6 daltons (designated as HM), and γ-polyglutamate hydrogel (prepared from γ-polyglutamate in Na^+ form) with molecular weight from 15x10^6 to 100x10^6 or higher (cross-linked with gamma ray irradiation) were used as super moisturizers. The species and proportions of the ingredients contained in the exemplified facial moisture mask formulation are listed in Table 5. Table 5. Facial Moisture Mask Formulation
The moisture mask samples of 25 cm^2 were taken from experimental example 4 and patched evenly on the outside surface of the upper arm skin of a test panelist. A group of 10 panelists participated in this test. After 24 hours, then the mask samples were removed and the skin was observed carefully for any degree of irritation, and the results were recorded according to Draize method (see Appraisel of the Safety of Chemicals in Food, Drugs and Cosmetics. Pharmacolo. 93:377-392, 1948, Draize, F. et al.). Table 6. The film formation time, capacity increase ratio (%), the pH value of the skin, and the Draize score after applying facial moisture masks

Pig skin [3] = assay: Ex-vivo pig skin: skin moisture retention by corneometry; conditions: 6.5% in skin moisture cream, 23°C and RH 60%
Method: Table 9. Skin moisture cream formulation.
Pig skin was used for this experiment. The skin moisture was measured at 23 °C under an environment of relative humidity (RH) of 60% with a probe of corneometer HM99 of Courage^+Khazaka Electronic Gmbh, Germany.

Pig skin [4] = assay: Ex-vivo pig skin: Trans-Epidermal-Water-Loss (TEWL); set-up: unit not given here; conditions: 6.5% in skin moisture cream
tyrosinase = assay: Inhibition of tyrosinase activity (absorbency at 475 nm); assay type: biochemical; conditions: 1.0% sample
Source text: Although the formation of black pigment melanin on skin is complicated, it is generally realized that tyrosine is oxidized to DOPA (Dihydroxy Phenyalanine) by the catalysis of tyrosinase from melansome of melanocyte. The DOPA is further oxidized and finally converted into colored melanin-protein complex. The small molecular weight γ-polyglutamate in Na^+ form with 200,000 to 350,000 daltons (designated as LM) and high molecular weight γ-polyglutamate in Na^+ form with 1.15x10^6 to 1.35x10^6 daltons (designated as HM) were used in this experiment to determine the effectiveness in inhibiting the tyrosinase activity. • a. […] Sample of the reaction solution is then taken for measuring the absorbency at 475 nm, and recorded as At. • b. Determination of the blank absorbance of tyrosinase solutuion: • Replace 0.1 ml of buffer solution with tyrosinase solution, and repeat the same procedure in item (a), and record the absorbency at 475 nm as A1. • c. Replace 1 ml sample solution with buffer solution, and repeat the same procedure in item (a), and record the absorbance at 475 nm as Ab. • d. Determination of total blank absorbance of test solution: • Replace 1 ml sample solution with buffer solution, and 0.1 ml of tyrosinase solution with buffer solution, and repeat the procedure in item (a), and record the absorbency at 475 nm as Ao. • e. […]

[5] = test system: outside skin surface of the panelist's arm; assay: Skin moisturization by corneometer HM99 (ΔCU=CU2-CU1); assay type: in vivo, human; conditions: 2% in skin moisture cream
Method: Table 7: Skin moisture cream formulation. The cosmetic products from experimental example 6 were evaluated for the effectiveness of skin moisturization. A group of 5 test panelists participated in this experiment. The panelists were first put in a room with a temperature at 22 °C and relative humidity (RH) 60% for 15 minutes. A probe of the corneometer HM99 of Courage^+Khazaka Electronic Gmbh, Germany was used to measure the skin moisture of the outside skin surface of the panelist's arm to determine the base line as (CU1). A sample of 0.2g from the formulation of experimental example 6 was evenly spread over an area of 25 cm^2 of the skin surface for 2 minutes before the excess formulation sample was removed. After 2 hours the skin moisture was measured again and recorded as (CU2). Before the measurement the panelists were placed in a room with temperature at 22 °C and RH 60% for 15 minutes. The atteration of skin moisture is then calculated as ΔCU=CU2-CU1.

[6] = test system: inside skin surface of a test panelist's arm; assay: Water retention on skin after skin vital moisture cream (capacitance, Skin Analysis SHP88); assay type: in vivo, human; conditions: 5% in skin vital moisture cream, 22°C and RH 65%
Method: Table 2: Skin vital moisture cream formulation. […] A sample of 0.2g from each of the 5 products was evenly spread over an area of about 25 cm^2 on the inside skin surface of a test panelist's arm. A group of 10 panelists participated in this test. The water retention on the skin surface was measured at 23 °C under an environment of relative humidity of 60%, with a probe of Skin Analysis SHP88 made by Courage ^+Khazaka Electronic Gmbh, Germany. […] Table 3. The change of moisture retention over time after applying vital moisture creams, was expressed in terms of capacitance increase ratio, %, measured at 22°C and RH 65%.

In the case of CC(O)CCO (stereo not drawn) [1,3-BG, 1,3-Butyl Glycol], the “Capacitance Increase Ratio, %” value [1] is reported as 73.2% and the “Draize Score” value [2] is reported as 0.
OCC(O)CO [Glycerol] was tested, and the “Difference Corneometry, %” value (Pig skin [3]; Time 0 hour) was 48.. %, the “Difference Corneometry, %” value (Pig skin [3]; Time 1 hour) was 32% and the “Difference Corneometry, %” value (Pig skin [3]; Time 2 hour) was 20%. The “Difference Corneometry, %” value (Pig skin [3]; Time 4 hour) was 17%, the “Difference Corneometry, %” value (Pig skin [3]; Time -1 hour) was 100% and the “Trans-Epidermal-Water-Loss (TEWL)” value (Pig skin [4]; Time 0 hour) was 21.0. For the same molecule, the “Trans-Epidermal-Water-Loss (TEWL)” value (Pig skin [4]; Time 1 hour) was 19.5, the “Trans-Epidermal-Water-Loss (TEWL)” value (Pig skin [4]; Time 2 hour) was 19.0 and the “Trans-Epidermal-Water-Loss (TEWL)” value (Pig skin [4]; Time 2 hour, listed as glycerol) was 10.0. The “Trans-Epidermal-Water-Loss (TEWL)” value (Pig skin [4]; Time 4 hour) was 17.5 and the “Trans-Epidermal-Water-Loss (TEWL)” value (Pig skin [4]; Time -1 hour) was 24.7.
In the case of O=c1cc(CO)occ1O [Kojic Acid], the “Inhibition of Tyrosinase Activity, %” value (tyrosinase) is reported as 100.0%.
With C[N+](C)(C)CC(=O)O [Natural Betaine] the “Increase in Skin Moisture ΔCU” value ([5]; after 2 hours, 22 °C, RH 60%) was 12.3 and the “Relative ΔCU %” value ([5]; relative to 5% Glycerol = 100) was 164%.
For CC(O)CO (stereo not drawn) [Propylene Glycol], the “Capacitance Increase Ratio, %” value ([6]; Time 0 min) was 0%, the “Capacitance Increase Ratio, %” value ([6]; Time 5 min) was 105% and the “Capacitance Increase Ratio, %” value ([6]; Time 10 min) was 57%. The “Capacitance Increase Ratio, %” value ([6]; Time 20 min) was 51%, the “Capacitance Increase Ratio, %” value ([6]; Time 40 min) was 40% and the “Capacitance Increase Ratio, %” value ([6]; Time 80 min) was 38%. For the same molecule, the “Capacitance Increase Ratio, %” value ([6]; Time 120 min) was 36%.
For O=C1O[C@H]([C@@H](O)CO)C(O)=C1O [Vitamin C], the “Inhibition of Tyrosinase Activity, %” value (tyrosinase) was 99.4%.
